US20230295197A1, “STAT5 and STAT6 Degraders and Uses Thereof” (REGENTS OF THE UNIVERSITY OF MICHICAN, priority 2022, published 2023)
Read-outs that look alike come from different tables or passages of the source. *1 amine or outer side, *2 acyl side, *3 side chain or, on linkers, in order; H or OH if unused. Where a SMILES comes first, the peptide text is derived from it. [ ]: non-standard residue; d: D form. The star is where a group is joined. Benzothienyl2CO(5-CF2PO3H2) = O=C(c1cc2cc(C(F)(F)P(=O)(O)O)ccc2s1)*; βAla(N-(4-Br-phenyl)) = O=C(CCN(c1ccc(Br)cc1)[*:1])[*:2]; NHBn(4-(4-Me-thiazol-5-yl)) = Cc1ncsc1-c1ccc(CN*)cc1; Hyp = O=C(O)[C@@H]1C[C@@H](O)CN1; Tle = CC(C)(C)[C@H](N)C(=O)O; Ahx = NCCCCCC(=O)O

Target: T1, STAT6 (Homo sapiens, UniProt P42226)
T1 construct: endogenous in cells; host or cells: MOLM-16, KU-812, SKNO1, MB231, L1236
T1 sequence (P42226 1-847): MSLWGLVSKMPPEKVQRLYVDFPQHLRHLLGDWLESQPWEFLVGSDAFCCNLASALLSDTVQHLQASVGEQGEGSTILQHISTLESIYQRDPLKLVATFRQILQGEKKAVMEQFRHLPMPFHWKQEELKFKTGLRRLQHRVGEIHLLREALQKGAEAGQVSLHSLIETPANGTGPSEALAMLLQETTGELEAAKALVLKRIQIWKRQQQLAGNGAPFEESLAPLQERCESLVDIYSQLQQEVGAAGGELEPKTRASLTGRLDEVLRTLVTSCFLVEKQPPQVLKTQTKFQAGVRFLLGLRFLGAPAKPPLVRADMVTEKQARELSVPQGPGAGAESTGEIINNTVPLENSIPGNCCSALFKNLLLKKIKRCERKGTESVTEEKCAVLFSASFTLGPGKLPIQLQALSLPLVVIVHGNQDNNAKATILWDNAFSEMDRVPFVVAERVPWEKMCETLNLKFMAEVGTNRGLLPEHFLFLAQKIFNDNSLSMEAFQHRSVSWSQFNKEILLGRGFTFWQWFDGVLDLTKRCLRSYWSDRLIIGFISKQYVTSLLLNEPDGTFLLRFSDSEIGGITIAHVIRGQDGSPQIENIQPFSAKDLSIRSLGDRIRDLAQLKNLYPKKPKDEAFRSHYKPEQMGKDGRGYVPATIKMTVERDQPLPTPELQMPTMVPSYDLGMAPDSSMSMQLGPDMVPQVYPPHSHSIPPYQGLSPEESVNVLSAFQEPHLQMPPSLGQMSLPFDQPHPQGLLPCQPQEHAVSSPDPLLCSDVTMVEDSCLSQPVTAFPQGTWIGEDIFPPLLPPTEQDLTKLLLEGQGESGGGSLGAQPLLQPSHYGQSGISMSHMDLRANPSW
Test: Immunoblotting (Western blot) analysis of STAT6 degradation efficiency of degraders in treated cells
Type: cell-based
How it was run: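 Read-out: fluorescent IRDye 680RD/800CW secondaries imaged on an infrared scanner, with band intensities quantified by densitometry and GAPDH serving as loading control. Samples were RIPA lysates, BCA-normalised, from ~1 million treated cells.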

[1] = L1236 cells, read-out: DC50 S6 L1236
[2] = MOLM-16 cells, class symbols, read-out: DC50 S6 MOLM-16

Cc1ncsc1-c1ccc([C@H](C)NC(=O)[C@@H]2C[C@@H](O)CN2C(=O)[C@@H](NC(=O)CNC(=O)CC(=O)N2CCN(C(=O)[C@@H](NC(=O)c3cc4cc(C(F)(F)P(=O)(O)O)ccc4s3)C(C)(C)C)[C@H](C(=O)N3CCC[C@H](c4ccccc4)C3)C2)C(C)(C)C)cc1 [Compound 452, (difluoro(2-(((S)-1-((S)-4-(3-((2-(((S)-1-((2S,4R)-4-hydroxy-2-(((S)-1-(4-(4-methylthiazol-5-yl)phenyl)ethyl)carbamoyl)pyrrolidin-1-yl)-3,3-dimethyl-1-oxobutan-2-yl)amino)-2-oxoethyl)amino)-3-oxopropanoyl)-2-((R)-3-phenylpiperidine-1-carbonyl)piperazin-1-yl)-3,3-dimethyl-1-oxobutan-2-yl)carbamoyl)benzo[b]thiophen-5-yl)methyl)phosphonic acid]
DC50 [1]: > 10 µM
DC50 [2]: > 10 µM

Cc1ncsc1-c1ccc(CNC(=O)[C@@H]2C[C@@H](O)CN2C(=O)[C@@H](NC(=O)CCCCCNC(=O)CCN(C(=O)[C@@H]2CCCN2C(=O)[C@@H](NC(=O)c2cc3cc(C(F)(F)P(=O)(O)O)ccc3s2)C(C)(C)C)c2ccc(Br)cc2)C(C)(C)C)cc1 [Compound 400] ({Benzothienyl2CO(5-CF2PO3H2)}-[Tle]P[βAla(N-(4-Br-phenyl))][Ahx][Tle][Hyp]-{NHBn(4-(4-Me-thiazol-5-yl))})
DC50 (read-out: DC50 S6 MB231, MB231 cells): > 10 µM

Cc1ncsc1-c1ccc([C@H](C)NC(=O)[C@@H]2C[C@@H](O)CN2C(=O)[C@@H](NC(=O)CCCCCCCNC(=O)COc2ccc3c(c2)CN(C(=O)[C@@H](NC(=O)c2cc4cc(C(F)(F)P(=O)(O)O)ccc4s2)C(C)(C)C)[C@H](C(=O)N2CCO[C@H](c4ccccc4)C2)C3)C(C)(C)C)cc1 [Compound 467, (difluoro(2-(((S)-1-((S)-7-(2-((8-(((S)-1-((2S,4R)-4-hydroxy-2-(((S)-1-(4-(4-methylthiazol-5-yl)phenyl)ethyl)carbamoyl)pyrrolidin-1-yl)-3,3-dimethyl-1-oxobutan-2-yl)amino)-8-oxooctyl)amino)-2-oxoethoxy)-3-((R)-2-phenylmorpholine-4-carbonyl)-3,4-dihydroisoquinolin-2(1H)-yl)-3,3-dimethyl-1-oxobutan-2-yl)carbamoyl)benzo[b]thiophen-5-yl)methyl)phosphonic acid]
DC50 [1]: > 10 µM
DC50 [2]: > 10 µM

Cc1cc([C@H](C(=O)N2C[C@H](O)C[C@H]2C(=O)N[C@@H](CC(=O)NCCCCCCCCNC(=O)CCN(C(=O)[C@@H]2CCCN2C(=O)[C@@H](NC(=O)c2cc3cc(C(F)(F)P(=O)(O)O)ccc3s2)C(C)(C)C)c2ccc(Br)cc2)c2ccc(-c3scnc3C)cc2)C(C)C)on1 [Compound 408, ((2-(((S)-1-((S)-2-((4-bromophenyl)(3-((8-((S)-3-((2S,4R)-4-hydroxy-1-((R)-3-methyl-2-(3-methylisoxazol-5-yl)butanoyl)pyrrolidine-2-carboxamido)-3-(4-(4-methylthiazol-5-yl)phenyl)propanamido)octyl)amino)-3-oxopropyl)carbamoyl)pyrrolidin-1-yl)-3,3-dimethyl-1-oxobutan-2-yl)carbamoyl)benzo[b]thiophen-5-yl)difluoromethyl)phosphonic acid]
DC50 (MB231 cells, read-out: DC50 S6 MB231): > 10 µM

Cc1ncsc1-c1ccc([C@H](C)NC(=O)[C@@H]2C[C@@H](O)CN2C(=O)[C@@H](NC(=O)CCCCNC(=O)CC(=O)N2CCN(C(=O)[C@@H](NC(=O)c3cc4cc(C(F)(F)P(=O)(O)O)ccc4s3)C(C)(C)C)[C@H](C(=O)N3CCC[C@H](c4ccccc4)C3)C2)C(C)(C)C)cc1 [Compound 455, (difluoro(2-(((S)-1-((S)-4-(3-((5-(((S)-1-((2S,4R)-4-hydroxy-2-(((S)-1-(4-(4-methylthiazol-5-yl)phenyl)ethyl)carbamoyl)pyrrolidin-1-yl)-3,3-dimethyl-1-oxobutan-2-yl)amino)-5-oxopentyl)amino)-3-oxopropanoyl)-2-((R)-3-phenylpiperidine-1-carbonyl)piperazin-1-yl)-3,3-dimethyl-1-oxobutan-2-yl)carbamoyl)benzo[b]thiophen-5-yl)methyl)phosphonic acid]
DC50 [1]: > 10 µM
DC50 [2]: > 10 µM

CC(C)(C)[C@H](NC(=O)c1cc2cc(C(F)(F)P(=O)(O)O)ccc2s1)C(=O)N1C[C@@H](OCC(=O)NCCCCCCCCC#Cc2cccc3c2C(=O)N(C2CCC(=O)NC2=O)C3=O)C[C@H]1C(=O)N1CCO[C@H](c2ccccc2)C1 (stereo partly drawn) [Compound 489, ((2-(((2S)-1-((2S,4S)-4-(2-((10-(2-(2,6-dioxopiperidin-3-yl)-1,3-dioxoisoindolin-4-yl)dec-9-yn-1-yl)amino)-2-oxoethoxy)-2-((R)-2-phenylmorpholine-4-carbonyl)pyrrolidin-1-yl)-3,3-dimethyl-1-oxobutan-2-yl)carbamoyl)benzo[b]thiophen-5-yl)difluoromethyl)phosphonic acid]
DC50 [2]: > 10 µM

CC(C)(C)[C@H](NC(=O)c1cc2cc(C(F)(F)P(=O)(O)O)ccc2s1)C(=O)N1CCN(C(=O)CC(=O)NCCCCCCCCC#Cc2ccc3c(c2)C(=O)N(C2CCC(=O)NC2=O)C3=O)C[C@H]1C(=O)N1CCO[C@H](c2ccccc2)C1 (stereo partly drawn) [Compound 518, ((2-(((2S)-1-((2S)-4-(3-((10-(2-(2,6-dioxopiperidin-3-yl)-1,3-dioxoisoindolin-5-yl)dec-9-yn-1-yl)amino)-3-oxopropanoyl)-2-((R)-2-phenylmorpholine-4-carbonyl)piperazin-1-yl)-3,3-dimethyl-1-oxobutan-2-yl)carbamoyl)benzo[b]thiophen-5-yl)difluoromethyl)phosphonic acid]
DC50 [2]: > 10 µM

CC(C)(C)[C@H](NC(=O)c1cc2cc(C(F)(F)P(=O)(O)O)ccc2s1)C(=O)N1Cc2cc(OCC(=O)NCCCC#Cc3ccc4c(c3)C(=O)N(C3CCC(=O)NC3=O)C4=O)ccc2C[C@H]1C(=O)N1CCC[C@H](c2ccccc2)C1 (stereo partly drawn) [Compound 554, ((2-(((2S)-1-((3S)-7-(2-((5-(2-(2,6-dioxopiperidin-3-yl)-1,3-dioxoisoindolin-5-yl)pent-4-yn-1-yl)amino)-2-oxoethoxy)-3-((R)-3-phenylpiperidine-1-carbonyl)-3,4-dihydroisoquinolin-2(1H)-yl)-3,3-dimethyl-1-oxobutan-2-yl)carbamoyl)benzo[b]thiophen-5-yl)difluoromethyl)phosphonic acid]
DC50 [2]: > 10 µM

Cc1ncsc1-c1ccc([C@H](C)NC(=O)[C@@H]2C[C@@H](O)CN2C(=O)[C@@H](NC(=O)CCCCCNC(=O)CO[C@H]2C[C@@H](C(=O)N3CCO[C@H](c4ccccc4)C3)N(C(=O)[C@@H](NC(=O)c3cc4cc(C(F)(F)P(=O)(O)O)ccc4s3)C(C)(C)C)C2)C(C)(C)C)cc1 [Compound 429, (difluoro(2-(((S)-1-((2S,4S)-4-(2-((6-(((S)-1-((2S,4R)-4-hydroxy-2-(((S)-1-(4-(4-methylthiazol-5-yl)phenyl)ethyl)carbamoyl)pyrrolidin-1-yl)-3,3-dimethyl-1-oxobutan-2-yl)amino)-6-oxohexyl)amino)-2-oxoethoxy)-2-((R)-2-phenylmorpholine-4-carbonyl)pyrrolidin-1-yl)-3,3-dimethyl-1-oxobutan-2-yl)carbamoyl)benzo[b]thiophen-5-yl)methyl)phosphonic acid]
DC50 [1]: > 10 µM
DC50 [2]: > 10 µM

Cc1ncsc1-c1ccc([C@H](C)NC(=O)[C@@H]2C[C@@H](O)CN2C(=O)[C@@H](NC(=O)CCCNC(=O)CO[C@H]2C[C@@H](C(=O)N3CCO[C@H](c4ccccc4)C3)N(C(=O)[C@@H](NC(=O)c3cc4cc(C(F)(F)P(=O)(O)O)ccc4s3)C(C)(C)C)C2)C(C)(C)C)cc1 [Compound 427, (difluoro(2-(((S)-1-((2S,4S)-4-(2-((4-(((S)-1-((2S,4R)-4-hydroxy-2-(((S)-1-(4-(4-methylthiazol-5-yl)phenyl)ethyl)carbamoyl)pyrrolidin-1-yl)-3,3-dimethyl-1-oxobutan-2-yl)amino)-4-oxobutyl)amino)-2-oxoethoxy)-2-((R)-2-phenylmorpholine-4-carbonyl)pyrrolidin-1-yl)-3,3-dimethyl-1-oxobutan-2-yl)carbamoyl)benzo[b]thiophen-5-yl)methyl)phosphonic acid]
DC50 [1]: > 10 µM
DC50 [2]: > 10 µM

CC(C)(C)[C@H](NC(=O)c1cc2cc(C(F)(F)P(=O)(O)O)ccc2s1)C(=O)N1C[C@H](OCCCCCC#Cc2cccc3c2CN(C2CCC(=O)NC2=O)C3=O)C[C@H]1C(=O)N1CCO[C@H](c2ccccc2)C1 (stereo partly drawn) [Compound 600, ((2-(((2S)-1-((2S,4R)-4-((7-(2-(2,6-dioxopiperidin-3-yl)-1-oxoisoindolin-4-yl)hept-6-yn-1-yl)oxy)-2-((R)-2-phenylmorpholine-4-carbonyl)pyrrolidin-1-yl)-3,3-dimethyl-1-oxobutan-2-yl)carbamoyl)benzo[b]thiophen-5-yl)difluoromethyl)phosphonic acid]
DC50 (MOLM-16 cells, numeric bound, read-out: DC50 S6 MOLM-16): > 0.3 µM
